# From patent US11883423B2, “Nucleobase analogue derivatives and their applications” (BOARD OF REGENTS, THE UNIVERSITY OF TEXAS SYSTEM, priority 2014, dated 2024)
# Assay: Aqueous solubility by the indirect method (IPM/water partitioning, Beall et al.)
# Assay type: physicochemical
# Experimental: The aqueous solubility of Gem-DHA was determined following an indirect method according to Beall et al. with minimal modifications (Beall HD et al. International Journal of Pharmaceutics. 1993, 93, 37-47). Briefly, an excess amount of Gem-DHA was added to 100 μl of IPM in a crimp-sealed amber glass vials under nitrogen and was stirred vigorously at room temperature for 24 h, protected from light. After the stirring was stopped, the mixture was left to stand for an additional 24 h for equilibration. The content of the vial was centrifuged (14,000 rpm, 10 min) and the supernatant was transferred into a different tube. Aliquots of the saturated IPM solution were used to measure the Gem-DHA concentration before partitioning (A1) using HPLC (after proper dilution with methanol). Then, water was added to the IPM saturated solution in a volume ratio of 10:1. The two phases were mixed by vortexing for 5 min, left to stand for 15 min, then centrifuged (14,000 rpm, 15 min) to collect the IPM layer. Gem-DHA concentration in the IPM layer (A2) was again measured using HPLC after partitioning. The following equation was used to calculate the partition coefficient (KIPM/water) (Beall HD et al. International Journal of Pharmaceutics. 1993, 93, 37-47):
# [formula] where Vwater is the volume of the water phase and VIPM is the volume of IPM. The value of (Vwater/VIPM) was 10.
# The aqueous solubility (Sw) of Gem-DHA was determined using the following equation (Id.):
# [formula] where SIPM is the solubility of Gem-DHA in IPM.
# In order to validate the method of Beall et al. (Id.), the aqueous solubility of 4-(N)-stearoyl gemcitabine, another lipophilic gemcitabine conjugate (Sloat BR et al. Int J Pharm. 2011, 409(1-2), 278-288), which is stable in water, was measured directly (i.e., direct method) or using the indirect method reported by Beall et al. (Beall HD et al. International Journal of Pharmaceutics. 1993, 93, 37-47).
smiles,measurement,setting,value
"CC/C=C\C/C=C\C/C=C\C/C=C\C/C=C\C/C=C\CCC(=O)Nc1ccn(C2OC(CO)C(O)C2(F)F)c(=O)n1 (centres unmarked) [Gem-DHA, 4-(N)-Docosahexaenoyl Difluorodeoxycytidine]",KIPM/water (partition coefficient),,194.72 ± 111.3
same,"Stability in IPM, remaining","buffer, 48 h",> 92%
